Values belong to the compound of their own block, whether it stands above or below them. Where a SMILES comes first, the peptide text is derived from it. [ ]: non-standard residue; d: D form. The star is where a group is joined. Lys(Me,2-norbornyl) = CN(CCCC[C@H](N)C(=O)O)C1CC2CCC1C2; Benzoyl(4-tBu) = CC(C)(C)c1ccc(C(=O)*)cc1
Legend:
Parameters in all cases: recommended concentration 1 uM
[1] = target: Chromodomain Y-like protein 2 (Homo sapiens, UniProt Q8N8U2); test: Selectivity interaction (SPR) EUB0001090a CDYL2
[2] = target: E3 SUMO-protein ligase CBX4 (Homo sapiens, UniProt O00257); test: Selectivity interaction (SPR) EUB0001090a CBX4
[3] = target: T1, Chromobox protein homolog 2 (Homo sapiens, UniProt Q14781); test: Selectivity interaction (SPR) EUB0001090a CBX2
T1 sequence (Q14781 whole entry): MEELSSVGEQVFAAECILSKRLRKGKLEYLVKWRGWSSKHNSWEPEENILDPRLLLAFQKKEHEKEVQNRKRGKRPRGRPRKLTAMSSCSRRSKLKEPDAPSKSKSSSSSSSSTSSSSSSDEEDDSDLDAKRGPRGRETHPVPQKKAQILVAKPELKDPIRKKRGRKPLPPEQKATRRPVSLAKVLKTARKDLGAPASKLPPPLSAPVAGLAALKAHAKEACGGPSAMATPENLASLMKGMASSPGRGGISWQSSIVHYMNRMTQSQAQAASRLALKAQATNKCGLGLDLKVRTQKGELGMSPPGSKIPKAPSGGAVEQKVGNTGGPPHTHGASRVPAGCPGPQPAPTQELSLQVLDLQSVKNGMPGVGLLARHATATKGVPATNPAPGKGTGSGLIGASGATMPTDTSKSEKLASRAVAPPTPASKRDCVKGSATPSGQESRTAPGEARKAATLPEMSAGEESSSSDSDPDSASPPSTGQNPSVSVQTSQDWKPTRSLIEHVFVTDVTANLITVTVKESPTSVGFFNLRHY

[4] = target: Chromobox protein homolog 6 (Homo sapiens, UniProt O95503); test: Selectivity interaction (SPR) EUB0001090a CBX6
Sequence of Chromobox protein homolog 6 (O95503 whole entry): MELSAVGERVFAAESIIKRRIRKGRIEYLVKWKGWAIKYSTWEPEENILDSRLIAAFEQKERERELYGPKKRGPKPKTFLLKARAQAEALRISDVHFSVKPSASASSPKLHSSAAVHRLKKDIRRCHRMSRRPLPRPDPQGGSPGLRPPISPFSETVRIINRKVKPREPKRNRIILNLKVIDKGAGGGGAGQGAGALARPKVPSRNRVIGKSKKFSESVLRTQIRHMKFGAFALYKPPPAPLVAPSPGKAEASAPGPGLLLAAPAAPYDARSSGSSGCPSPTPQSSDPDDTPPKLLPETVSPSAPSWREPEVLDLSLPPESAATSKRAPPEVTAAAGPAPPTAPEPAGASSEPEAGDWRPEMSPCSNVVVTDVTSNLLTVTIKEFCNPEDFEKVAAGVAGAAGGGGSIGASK

[5] = target: Chromobox protein homolog 8 (Homo sapiens, UniProt Q9HC52); test: Selectivity interaction (SPR) EUB0001090a CBX8
[6] = target: Poly [ADP-ribose] polymerase tankyrase-1 (Homo sapiens, UniProt O95271); test: Selectivity interaction (Enzymatic assay) EUB0002249a TNKS1
Sequence of Poly [ADP-ribose] polymerase tankyrase-1 (O95271 whole entry): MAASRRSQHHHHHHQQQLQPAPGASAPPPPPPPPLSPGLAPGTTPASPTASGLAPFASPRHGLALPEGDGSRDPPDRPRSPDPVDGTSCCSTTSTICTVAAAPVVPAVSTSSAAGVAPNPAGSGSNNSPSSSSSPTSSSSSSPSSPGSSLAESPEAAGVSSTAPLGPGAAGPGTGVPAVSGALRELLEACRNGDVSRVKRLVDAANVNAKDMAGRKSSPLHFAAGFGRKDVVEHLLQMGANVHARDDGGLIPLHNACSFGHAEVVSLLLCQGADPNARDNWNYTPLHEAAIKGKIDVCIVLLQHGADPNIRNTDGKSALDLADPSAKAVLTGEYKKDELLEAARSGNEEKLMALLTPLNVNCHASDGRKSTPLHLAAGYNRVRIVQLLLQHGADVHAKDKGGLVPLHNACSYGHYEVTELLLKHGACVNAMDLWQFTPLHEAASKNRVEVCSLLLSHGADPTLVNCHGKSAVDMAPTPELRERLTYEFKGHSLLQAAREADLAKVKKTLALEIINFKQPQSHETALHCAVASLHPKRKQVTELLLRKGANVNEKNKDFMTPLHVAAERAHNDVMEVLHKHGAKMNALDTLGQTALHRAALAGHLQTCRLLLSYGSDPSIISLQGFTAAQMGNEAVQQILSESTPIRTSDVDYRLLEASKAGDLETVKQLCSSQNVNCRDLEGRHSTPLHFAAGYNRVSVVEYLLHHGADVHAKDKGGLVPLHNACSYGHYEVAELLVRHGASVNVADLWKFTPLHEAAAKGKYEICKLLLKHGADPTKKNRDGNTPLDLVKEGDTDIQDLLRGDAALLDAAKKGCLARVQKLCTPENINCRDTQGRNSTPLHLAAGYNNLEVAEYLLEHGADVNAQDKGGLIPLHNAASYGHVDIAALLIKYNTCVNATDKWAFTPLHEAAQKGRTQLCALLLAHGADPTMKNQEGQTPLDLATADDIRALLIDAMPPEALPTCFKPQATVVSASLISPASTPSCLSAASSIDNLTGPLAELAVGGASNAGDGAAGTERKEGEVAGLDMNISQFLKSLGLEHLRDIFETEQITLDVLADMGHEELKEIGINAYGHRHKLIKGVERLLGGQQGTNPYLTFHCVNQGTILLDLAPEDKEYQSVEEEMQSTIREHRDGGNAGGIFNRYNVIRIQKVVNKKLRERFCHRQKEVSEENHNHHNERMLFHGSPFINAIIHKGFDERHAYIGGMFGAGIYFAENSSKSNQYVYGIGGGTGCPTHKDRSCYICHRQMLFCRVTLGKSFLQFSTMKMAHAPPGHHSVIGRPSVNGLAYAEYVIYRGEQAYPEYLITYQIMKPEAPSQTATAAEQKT

[7] = target: Poly [ADP-ribose] polymerase 1 (Homo sapiens, UniProt P09874); test: Selectivity interaction (Enzymatic assay) EUB0002249a PARP1
Sequence of Poly [ADP-ribose] polymerase 1 (P09874 whole entry): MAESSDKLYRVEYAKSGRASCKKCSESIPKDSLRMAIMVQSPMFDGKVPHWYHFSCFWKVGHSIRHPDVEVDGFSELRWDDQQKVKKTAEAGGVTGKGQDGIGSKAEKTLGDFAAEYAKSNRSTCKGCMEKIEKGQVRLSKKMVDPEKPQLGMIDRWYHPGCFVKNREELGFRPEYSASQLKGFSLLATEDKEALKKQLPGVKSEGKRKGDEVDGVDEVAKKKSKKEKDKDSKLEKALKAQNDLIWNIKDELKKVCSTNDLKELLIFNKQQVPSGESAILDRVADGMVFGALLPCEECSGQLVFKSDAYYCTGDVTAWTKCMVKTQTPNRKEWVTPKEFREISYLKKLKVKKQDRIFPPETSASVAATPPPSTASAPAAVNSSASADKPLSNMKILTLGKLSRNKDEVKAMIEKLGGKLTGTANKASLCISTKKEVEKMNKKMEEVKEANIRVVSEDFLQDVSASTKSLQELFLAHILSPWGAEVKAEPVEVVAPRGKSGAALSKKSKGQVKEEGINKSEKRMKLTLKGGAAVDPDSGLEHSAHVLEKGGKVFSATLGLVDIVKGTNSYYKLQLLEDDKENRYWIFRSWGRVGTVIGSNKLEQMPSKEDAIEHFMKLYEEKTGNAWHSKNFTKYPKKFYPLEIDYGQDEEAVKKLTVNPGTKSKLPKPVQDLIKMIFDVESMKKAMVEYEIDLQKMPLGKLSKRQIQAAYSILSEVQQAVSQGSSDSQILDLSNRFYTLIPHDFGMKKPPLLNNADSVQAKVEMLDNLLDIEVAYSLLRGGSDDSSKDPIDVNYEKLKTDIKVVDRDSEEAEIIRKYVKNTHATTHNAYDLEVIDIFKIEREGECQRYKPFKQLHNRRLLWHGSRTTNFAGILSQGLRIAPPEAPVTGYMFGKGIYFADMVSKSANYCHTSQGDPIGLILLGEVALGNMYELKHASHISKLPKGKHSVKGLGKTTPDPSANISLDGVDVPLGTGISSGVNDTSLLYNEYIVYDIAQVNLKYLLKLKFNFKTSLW

[8] = target: Caspase-4 (Homo sapiens, UniProt P49662); test: Selectivity interaction (Enzymatic assay) EUB0002198aAD CASP4
[9] = target: Caspase-14 (Homo sapiens, UniProt P31944); test: Selectivity interaction (Enzymatic assay) EUB0002198aAD CASP14
Sequence of Caspase-14 (P31944 6-146 limits assumed): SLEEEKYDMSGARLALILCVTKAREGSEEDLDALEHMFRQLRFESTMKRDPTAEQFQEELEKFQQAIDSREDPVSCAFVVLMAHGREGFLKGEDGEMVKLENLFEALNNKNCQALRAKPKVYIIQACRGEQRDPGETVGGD
Sequence of Caspase-14 (P31944 153-242 limits assumed): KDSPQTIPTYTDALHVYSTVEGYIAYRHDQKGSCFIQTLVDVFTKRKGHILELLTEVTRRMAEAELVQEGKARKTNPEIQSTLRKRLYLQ

[10] = target: T2, Caspase-10 (Homo sapiens, UniProt Q92851); test: (§1) Selectivity interaction (Enzymatic assay) EUB0002198aAD CASP10
T2 sequence (Q92851 whole entry): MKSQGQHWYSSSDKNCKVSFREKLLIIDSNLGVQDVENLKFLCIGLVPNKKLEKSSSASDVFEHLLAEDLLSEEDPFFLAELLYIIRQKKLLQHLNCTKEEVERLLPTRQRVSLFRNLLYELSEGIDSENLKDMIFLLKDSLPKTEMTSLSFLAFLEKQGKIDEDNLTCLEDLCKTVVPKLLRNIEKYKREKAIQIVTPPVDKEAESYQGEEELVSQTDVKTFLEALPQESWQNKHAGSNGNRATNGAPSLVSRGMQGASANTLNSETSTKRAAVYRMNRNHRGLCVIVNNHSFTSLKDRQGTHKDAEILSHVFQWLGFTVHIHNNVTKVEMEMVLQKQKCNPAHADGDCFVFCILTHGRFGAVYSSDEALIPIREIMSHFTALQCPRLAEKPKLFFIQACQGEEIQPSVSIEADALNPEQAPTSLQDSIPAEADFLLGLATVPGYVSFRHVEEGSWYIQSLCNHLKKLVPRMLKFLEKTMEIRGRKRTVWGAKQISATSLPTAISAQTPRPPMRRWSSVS

[11] = target: T2, Caspase-10; test: as §1; remark: listed apart in the source
[12] = target: T3, Caspase-5 (Homo sapiens, UniProt P51878); test: Selectivity interaction (Enzymatic assay) EUB0002198aAD CASP5
T3 sequence (P51878 whole entry): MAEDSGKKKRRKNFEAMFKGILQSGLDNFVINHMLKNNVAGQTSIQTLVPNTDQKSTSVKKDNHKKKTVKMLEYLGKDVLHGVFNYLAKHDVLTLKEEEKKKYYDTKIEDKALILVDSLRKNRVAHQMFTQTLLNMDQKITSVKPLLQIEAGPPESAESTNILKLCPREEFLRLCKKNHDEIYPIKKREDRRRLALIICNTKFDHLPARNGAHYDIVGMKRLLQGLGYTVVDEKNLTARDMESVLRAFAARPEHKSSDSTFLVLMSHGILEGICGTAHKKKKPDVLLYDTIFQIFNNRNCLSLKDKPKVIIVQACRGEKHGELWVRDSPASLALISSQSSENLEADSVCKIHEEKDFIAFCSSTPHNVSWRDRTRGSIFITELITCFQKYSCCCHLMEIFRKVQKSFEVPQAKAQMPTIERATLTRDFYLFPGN

[13] = target: T4, Caspase-9 (Homo sapiens, UniProt P55211); test: Selectivity interaction (Enzymatic assay) EUB0002198aAD CASP9
T4 sequence (P55211 whole entry): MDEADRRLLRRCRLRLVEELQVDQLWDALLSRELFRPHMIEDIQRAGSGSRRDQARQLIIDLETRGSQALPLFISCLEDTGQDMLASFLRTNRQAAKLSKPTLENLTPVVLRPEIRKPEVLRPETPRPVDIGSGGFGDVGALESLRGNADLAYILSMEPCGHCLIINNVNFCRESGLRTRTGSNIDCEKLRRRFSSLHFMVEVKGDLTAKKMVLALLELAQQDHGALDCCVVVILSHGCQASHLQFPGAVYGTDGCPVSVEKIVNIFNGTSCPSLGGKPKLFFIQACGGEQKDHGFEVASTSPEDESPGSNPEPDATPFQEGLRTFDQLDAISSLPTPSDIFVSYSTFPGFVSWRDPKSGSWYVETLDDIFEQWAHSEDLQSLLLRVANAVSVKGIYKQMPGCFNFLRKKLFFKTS

[14] = target: T2, Caspase-10; test: as §1; remark: listed apart in the source
[15] = target: N-lysine methyltransferase SMYD2 (Homo sapiens, UniProt Q9NRG4); test: Selectivity interaction (Enzymatic assay) EUB0002243aAD SMYD2
Sequence of N-lysine methyltransferase SMYD2 (Q9NRG4 whole entry): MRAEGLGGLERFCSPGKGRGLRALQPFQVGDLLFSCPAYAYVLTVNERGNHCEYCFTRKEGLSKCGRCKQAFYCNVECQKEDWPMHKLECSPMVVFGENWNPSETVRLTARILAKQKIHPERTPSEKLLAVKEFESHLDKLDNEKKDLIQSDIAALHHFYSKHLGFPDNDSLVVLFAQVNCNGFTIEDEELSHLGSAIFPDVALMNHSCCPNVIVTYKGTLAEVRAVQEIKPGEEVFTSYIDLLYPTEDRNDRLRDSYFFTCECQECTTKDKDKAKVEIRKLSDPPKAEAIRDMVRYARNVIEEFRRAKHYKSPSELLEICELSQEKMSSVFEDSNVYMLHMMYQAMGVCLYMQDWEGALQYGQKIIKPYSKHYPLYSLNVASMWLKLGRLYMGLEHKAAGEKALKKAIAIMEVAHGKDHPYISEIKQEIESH

[16] = target: Muscarinic acetylcholine receptor M2 (Homo sapiens, UniProt P08172); test: Selectivity interaction (US National Institute of Mental Health's Psychoactive Drug Screen Program Selectivity Panel) EUB0001125a CHRM2
[17] = target: 5-hydroxytryptamine receptor 2A (Homo sapiens, UniProt P28223); test: Selectivity interaction (US National Institute of Mental Health's Psychoactive Drug Screen Program Selectivity Panel) EUB0001125a HTR2A
Sequence of 5-hydroxytryptamine receptor 2A (P28223 whole entry): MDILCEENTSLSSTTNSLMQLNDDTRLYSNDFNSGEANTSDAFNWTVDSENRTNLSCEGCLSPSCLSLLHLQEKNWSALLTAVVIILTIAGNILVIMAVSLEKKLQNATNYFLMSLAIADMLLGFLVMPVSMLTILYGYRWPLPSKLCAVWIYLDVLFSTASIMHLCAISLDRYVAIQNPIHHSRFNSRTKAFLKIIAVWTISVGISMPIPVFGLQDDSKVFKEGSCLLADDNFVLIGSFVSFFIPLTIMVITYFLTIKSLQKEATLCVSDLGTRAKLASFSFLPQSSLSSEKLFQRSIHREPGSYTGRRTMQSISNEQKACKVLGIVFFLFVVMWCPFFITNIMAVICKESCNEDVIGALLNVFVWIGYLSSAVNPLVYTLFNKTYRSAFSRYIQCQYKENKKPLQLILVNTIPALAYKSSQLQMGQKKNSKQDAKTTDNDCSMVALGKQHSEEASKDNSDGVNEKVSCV

[18] = target: Alpha-1A adrenergic receptor (Homo sapiens) (UniProt P35348); test: Selectivity interaction (Ricerca selectivity panel) EUB0001125a ADRA1A; settings: at 1 µM
[19] = target: Muscarinic acetylcholine receptor M2 (Homo sapiens) (UniProt P08172); test: Selectivity interaction (Ricerca selectivity panel) EUB0001125a CHRM2; settings: at 1 µM
[20] = target: Alpha-2C adrenergic receptor (Homo sapiens, UniProt P18825); test: Selectivity interaction (US National Institute of Mental Health's Psychoactive Drug Screen Program Selectivity Panel) EUB0001125a ADRA2C
[21] = target: Alpha-1A adrenergic receptor (Homo sapiens, UniProt P35348); test: Selectivity interaction (US National Institute of Mental Health's Psychoactive Drug Screen Program Selectivity Panel) EUB0001125a ADRA1A
[22] = target: Muscarinic acetylcholine receptor M4 (Homo sapiens, UniProt P08173); test: Selectivity interaction (US National Institute of Mental Health's Psychoactive Drug Screen Program Selectivity Panel) EUB0001125a CHRM4
[23] = target: Alpha-1B adrenergic receptor (Homo sapiens) (UniProt P35368); test: Selectivity interaction (Ricerca selectivity panel) EUB0001125a ADRA1B; settings: at 1 µM
Sequence of Alpha-1B adrenergic receptor (Homo sapiens) (P35368 whole entry): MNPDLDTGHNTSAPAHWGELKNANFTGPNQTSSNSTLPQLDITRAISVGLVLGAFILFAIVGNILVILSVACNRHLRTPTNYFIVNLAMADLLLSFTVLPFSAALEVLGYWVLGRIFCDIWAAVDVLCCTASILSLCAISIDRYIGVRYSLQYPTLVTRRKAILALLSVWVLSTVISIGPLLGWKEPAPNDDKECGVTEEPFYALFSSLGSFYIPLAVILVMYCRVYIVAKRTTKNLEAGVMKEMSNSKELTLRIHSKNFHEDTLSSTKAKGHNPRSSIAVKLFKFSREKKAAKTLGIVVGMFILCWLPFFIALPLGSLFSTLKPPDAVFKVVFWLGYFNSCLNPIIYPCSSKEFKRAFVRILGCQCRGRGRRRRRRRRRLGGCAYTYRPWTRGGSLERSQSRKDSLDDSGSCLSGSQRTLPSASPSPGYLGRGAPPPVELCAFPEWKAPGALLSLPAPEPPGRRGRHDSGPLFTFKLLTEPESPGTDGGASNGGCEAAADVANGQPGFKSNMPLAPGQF

[24] = target: Muscarinic acetylcholine receptor M1 (Homo sapiens, UniProt P11229); test: Selectivity interaction (US National Institute of Mental Health's Psychoactive Drug Screen Program Selectivity Panel) EUB0001125a CHRM1
Sequence of Muscarinic acetylcholine receptor M1 (P11229 whole entry): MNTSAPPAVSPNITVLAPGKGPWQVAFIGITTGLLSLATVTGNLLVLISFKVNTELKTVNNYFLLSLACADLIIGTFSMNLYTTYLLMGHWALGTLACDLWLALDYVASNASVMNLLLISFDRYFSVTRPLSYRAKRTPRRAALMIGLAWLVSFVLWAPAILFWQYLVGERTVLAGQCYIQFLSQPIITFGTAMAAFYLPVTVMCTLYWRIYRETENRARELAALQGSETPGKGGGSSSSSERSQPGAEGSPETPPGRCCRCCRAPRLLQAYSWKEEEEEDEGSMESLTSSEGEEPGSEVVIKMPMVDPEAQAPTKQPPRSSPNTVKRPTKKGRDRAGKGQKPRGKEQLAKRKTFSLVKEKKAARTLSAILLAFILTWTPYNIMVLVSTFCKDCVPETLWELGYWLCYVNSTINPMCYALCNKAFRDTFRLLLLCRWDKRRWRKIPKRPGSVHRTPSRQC

Kd [1]: 415 nM
Kd [2]: 26.7 nM
Kd [3]: 1750 nM
Kd [4]: 543 nM
Kd [5]: 458 nM
Compound: COC(=O)[C@H](CO)NC(=O)[C@H](CCCCN(C)C1CC2CCC1C2)NC(=O)[C@H](CC(C)C)NC(=O)[C@H](C)NC(=O)[C@H](Cc1ccccc1)NC(=O)c1ccc(C(C)(C)C)cc1 (some centres undefined) ({Benzoyl(4-tBu)}-FAL[Lys(Me,2-norbornyl)]S-OMe)

IC50 [6]: 9040 nM
IC50 [7]: 11700 nM
Compound: NC(=O)c1cccc(NC(=O)CCC(=O)NCCc2cn(CCNS(=O)(=O)c3cccc(C(=O)O)c3)nn2)c1

IC50 [8]: 81.7 nM
IC50 [9]: 134 nM
IC50 [10]: 40.4 nM
IC50 [11]: 240 nM
IC50 [12]: 21.3 nM
IC50 [13]: 49.2 nM
IC50 [14]: 240 nM
Compound: CC(=O)N[C@@H](CC(C)C)C(=O)N[C@@H](CCC(=O)O)C(=O)N[C@@H](Cc1cnc[nH]1)C(=O)N[C@H](C=O)CC(=O)O (Ac-LEHD-aldehyde)

Ki [15]: 345 nM
Compound: CN(C)CCCN(CC[C@H](N)C(=O)O)C[C@H]1O[C@@H](n2cnc3c(N)ncnc32)[C@H](O)[C@@H]1O

Ki [16]: 510 nM
Ki [17]: 1200 nM
Inhibition of control [18]: 90%
Inhibition of control [19]: 64%
Ki [20]: 400 nM
Ki [21]: 500 nM
Ki [22]: 510 nM
Inhibition of control [23]: 69%
Ki [24]: 370 nM
Compound: COc1cc2c(NC3CCN(C(C)C)CC3)nc(C3CCCCC3)nc2cc1OCCCN1CCCC1

From ChEMBL document CHEMBL5715260, “Selectivity Literature for EUbOPEN Chemogenomic Library” (2024)
